Melting point data for 65 compounds are collected here from US7511041B2, “Fused azole-pyrimidine derivatives” (Bayer Pharmaceuticals Corporation, priority 2002, dated 2009).

The structures appear in SMILES notation. Some results are limits rather than exact numbers.

As for `COc1ccc2c(c1OC)N=C(NC(=O)c1cnc3[nH]cnc3c1)N1CCN=C21.Cl` [Example 2-52], the melting point is 210 °C (dec.). As to `COc1cc2c(cc1OC)C1=NCCN1C(NC(=O)c1cncc(O)c1)=N2.Cl` [Example 2-55], the melting point is 260 °C (dec.). The result for `COc1cc2c(cc1OC)C1=NCCN1C(NC(=O)c1ccc(NC(C)=O)nc1)=N2.Cl` [Example 2-58] reads 279 °C.

On to `COc1cc2c(cc1OC)C1=NCCN1C(NC(=O)c1ccc3[nH]cnc3c1)=N2.Cl` [Example 2-61], for which the melting point is 276 °C. The result for `COc1ccc2c(c1Br)N=C(NC(=O)c1cccnc1)N1CCN=C21.Cl` [Example 2-66] reads 298 °C; that for `COc1cc(OC)c2c(c1)C1=NCCN1C(NC(=O)c1ccc(NC(C)=O)nc1)=N2.Cl` [Example 2-71], 270 °C (dec.). Turning to `COc1cc(OC)c2c(c1)C1=NCCN1C(NC(=O)c1ccc3[nH]cnc3c1)=N2.Cl` [Example 2-73], the melting point was 289 °C (dec.).

With `COc1cc2c(c(OC)c1C)N=C(NC(=O)c1cccnc1C)N1CCN=C21.Cl` [Example 2-78], the melting point was 230 °C (dec.). On to `COc1cc2c(c(OC)c1C)N=C(NC(=O)c1ccc3[nH]cnc3c1)N1CCN=C21.Cl` [Example 2-82], for which the melting point is 280 °C (dec.).

Compound `Cl.O=C(NC1=Nc2ccc(Cl)cc2C2=NCCN12)c1cccnc1` [Example 2-85] came in with a melting point of 309 °C. Regarding `Cl.O=C(NC1=Nc2ccc(Br)cc2C2=NCCN12)c1cccnc1` [Example 2-88], the melting point was 316 °C.

Compound `C=Cc1ccc2c(c1)C1=NCCN1C(NC(=O)c1cccnc1)=N2.Cl` [Example 2-96] showed a melting point of 275 to 277 °C. As for `Cl.O=C(NC1=Nc2c(F)cccc2C2=NCCN12)c1ccc2[nH]cnc2c1` [Example 2-102], the figure is greater than 300 °C; as for `Cc1cccc2c1N=C(NC(=O)c1cccnc1)N1CCN=C21.Cl` [Example 2-108], greater than 290 °C. `Cc1cccc2c1N=C(NC(=O)c1ccc3[nH]cnc3c1)N1CCN=C21.Cl` [Example 2-110] returned a melting point greater than 290 °C. The result for `Cl.O=C(NC1=Nc2c(cccc2C(F)(F)F)C2=NCCN12)c1ccc2[nH]cnc2c1` [Example 2-113] reads 270 °C; that for `COc1cccc2c1N=C(NC(=O)c1cccnc1)N1CCN=C21.Cl` [Example 2-115], 237 °C (dec.); that for `COc1cccc2c1N=C(NC(=O)c1cccnc1Cl)N1CCN=C21.Cl` [Example 2-119], 266 °C (dec.). Consider `COc1cccc2c1N=C(NC(=O)c1ccc3[nH]cnc3c1)N1CCN=C21.Cl` [Example 2-125], for which the melting point came to 238 °C.

Turning to `COc1cccc2c1N=C(NC(=O)c1cc3cccnc3nc1C)N1CCN=C21.Cl` [Example 2-127], the melting point is 225 °C (dec.). Consider `COc1cccc2c1N=C(NC(=O)c1cc3cccnc3nc1C(F)(F)F)N1CCN=C21.Cl` [Example 2-129], for which the melting point is 225 °C (dec.). Regarding `Cc1ncccc1C(=O)NC1=Nc2ccccc2C2=NCCN12.Cl` [Example 2-132], the melting point was 277 °C (dec.). Turning to `Cc1ccncc1C(=O)NC1=Nc2ccccc2C2=NCCN12.Cl` [Example 2-137], the melting point is 291 °C (dec.). As to `Cl.O=C(NC1=Nc2ccccc2C2=NCCN12)c1cncc(O)c1` [Example 2-139], the melting point is 296 to 297 °C. With `COc1cncc(C(=O)NC2=Nc3ccccc3C3=NCCN23)c1.Cl` [Example 2-141], the melting point is 272 °C (dec.). For `Cc1ccc(C(=O)NC2=Nc3ccccc3C3=NCCN23)cn1.Cl` [Example 2-148], the melting point was 310 °C (dec.). `Cl.Nc1ccc(C(=O)NC2=Nc3ccccc3C3=NCCN23)cn1` [Example 2-150]: the melting point was 290 °C (dec.).

As for `CC(=O)Nc1ccc(C(=O)NC2=Nc3ccccc3C3=NCCN23)cn1.Cl` [Example 2-152], the melting point was 312 °C (dec.).

For the compound `CNc1ccc(C(=O)NC2=Nc3ccccc3C3=NCCN23)cn1.Cl` [Example 2-154], the melting point is 300 °C (dec.).

Turning to `Cc1nc(N)ccc1C(=O)NC1=Nc2ccccc2C2=NCCN12.Cl` [Example 2-158], the melting point was 289 °C (dec.).

For `Cc1cc(C(=O)NC2=Nc3ccccc3C3=NCCN23)cnc1N.Cl` [Example 2-160], the melting point was 311 °C (dec.). Consider `Cc1nc2ccccn2c1C(=O)NC1=Nc2ccccc2C2=NCCN12.Cl` [Example 2-171], for which the melting point was 328 °C (dec.). For `Cl.O=C(NC1=Nc2ccccc2C2=NCCN12)c1cnc2[nH]cnc2c1` [Example 2-173], the melting point was 287 °C (dec.). `Cc1nc2ncccc2cc1C(=O)NC1=Nc2ccccc2C2=NCCN12.Cl` [Example 2-175]: the melting point is 270 °C (dec.).

As for `Cl.O=C(NC1=Nc2ccccc2C2=NCCN12)c1sccc1Cl` [Example 2-181], the melting point was 298 °C (dec.). As for `Cl.O=C(NC1=Nc2ccccc2C2=NCCN12)c1ccsc1` [Example 2-184], the figure is 297 °C (dec.); as for `CCn1nc(C)cc1C(=O)NC1=Nc2ccccc2C2=NCCN12.Cl` [Example 2-192], 271 to 272 °C; as for `Cl.O=C(NC1=Nc2ccccc2C2=NCCN12)c1c[nH]cn1` [Example 2-194], 309 to 310 °C. Regarding `Cl.O=C(NC1=Nc2cc(OCCO)ccc2C2=NCCN12)c1cccnc1` [Example 2-198], the melting point is 249 °C (dec.). Turning to `Cl.O=C(NC1=Nc2cc(OCCOCCO)ccc2C2=NCCN12)c1cccnc1` [Example 2-202], the melting point was 229 °C (dec.). As for `Cl.O=C(NC1=Nc2cc(OCC(=O)N3CCOCC3)ccc2C2=NCCN12)c1cccnc1` [Example 2-208], the figure is 227 °C. Regarding `COc1c(C)cc(C(=O)NC2=Nc3ccccc3C3=NCCN23)cc1C.Cl` [Example 2-221], the melting point is 288 °C (dec.).

On to `Cc1cc(C(=O)NC2=Nc3ccccc3C3=NCCN23)cc(C)c1[N+](=O)[O-].Cl` [Example 2-223], for which the melting point is 313 °C (dec.). `O=C(NC1=Nc2ccccc2C2=NCCN12)c1ccc(Cl)cc1.O=C(O)C(F)(F)F` [Example 2-230] had a melting point of 243 to 245 °C. `COc1cc(C(=O)NC2=Nc3ccccc3C3=NCCN23)cc(OC)c1C.Cl` [Example 2-242]: the melting point was 321 °C (dec.).

Take `CSc1ccc(C(=O)NC2=Nc3ccccc3C3=NCCN23)cc1.Cl` [Example 2-244]: the melting point was 292 °C (dec.). As to `CS(=O)(=O)c1ccc(C(=O)NC2=Nc3ccccc3C3=NCCN23)cc1.Cl` [Example 2-246], the melting point was 320 °C (dec.). In the case of `Cl.NS(=O)(=O)c1ccc(C(=O)NC2=Nc3ccccc3C3=NCCN23)cc1` [Example 2-248], the melting point is 308 °C (dec.).

Regarding `Cl.NS(=O)(=O)c1ccc(C(=O)NC2=Nc3ccccc3C3=NCCN23)c(Cl)c1` [Example 2-250], the melting point is 300 °C (dec.).

For the compound `O=C(NC1=Nc2ccccc2C2=NCCN12)c1cccc([N+](=O)[O-])c1.O=C(O)C(F)(F)F` [Example 2-253], the melting point is 238 to 239 °C. Consider `O=C(NC1=Nc2ccccc2C2=NCCN12)c1ccc([N+](=O)[O-])cc1.O=C(O)C(F)(F)F` [Example 2-255], for which the melting point was 265 °C (dec.). `CN(C)c1cccc(C(=O)NC2=Nc3ccccc3C3=NCCN23)c1.Cl` [Example 2-259]: the melting point is 266 °C (dec.). As for `CN(C=O)c1ccc(C(=O)NC2=Nc3ccccc3C3=NCCN23)cc1.Cl` [Example 2-264], the figure is 304 °C (dec.). For the compound `Cl.O=C(NC1=Nc2ccccc2C2=NCCN12)c1ccc(-n2cccc2)cc1` [Example 2-267], the melting point is 309 °C (dec.). For the compound `Cl.O=C(NC1=Nc2ccccc2C2=NCCN12)c1ccc(-n2ccnc2)cc1` [Example 2-269], the melting point is 324 °C (dec.). Turning to `Cl.O=C(NC1=Nc2ccccc2C2=NCCN12)c1ccc(-n2cccn2)cc1` [Example 2-271], the melting point was 319 °C (dec.). As for `CCOC(=O)c1cc(C(=O)NC2=Nc3ccccc3C3=NCCN23)cc(C(=O)OCC)c1.Cl` [Example 2-275], the figure is 282 °C; as for `O=C(NC1=Nc2ccccc2C2=NCCN12)c1ccccn1.O=C(O)C(F)(F)F` [Example 2-277], 206 °C (dec.). The result for `O=C(NC1=Nc2ccccc2C2=NCCN12)c1cnccn1.O=C(O)C(F)(F)F` [Example 2-293] reads 234 °C (dec.).

Consider `Cc1cnc(C(=O)NC2=Nc3ccccc3C3=NCCN23)cn1.O=C(O)C(F)(F)F` [Example 2-295], for which the melting point is 231 °C (dec.). As for `Cl.Cn1cccc1C(=O)NC1=Nc2ccccc2C2=NCCN12` [Example 2-297], the melting point was 264 °C (dec.). As for `Cl.O=C(NC1=Nc2ccccc2C2=NCCN12)c1ccc([N+](=O)[O-])s1` [Example 2-304], the figure is 300 °C (dec.); as for `Cl.O=C(NC1=Nc2ccccc2C2=NCCN12)c1csc([N+](=O)[O-])c1` [Example 2-306], 296 °C (dec.).

Take `Cl.O=C(NC1=Nc2ccccc2C2=NCCN12)c1csc(-c2cccnc2)n1` [Example 2-320]: the melting point was 310 °C (dec.). With `Cl.O=C(NC1=Nc2ccccc2C2=NCCN12)c1csc(-c2ccncc2)n1` [Example 2-322], the melting point was 335 °C (dec.).
